Measured values as given in patent publication US20230011869A1 (Hoffmann-La Roche Inc., priority 2018, published 2023).
Counter-ions that a name gives are not always drawn. Like-named read-outs stand apart in the source and are kept apart here.

Tested on: Acinetobacter baumannii ATCC17978
Assay: Antimicrobial susceptibility testing: 90% growth inhibitory concentration (IC90) determination, Iso-Sensitest broth
Type: cell-based
In short: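 A. baumannii ATCC17978 grown in Iso-Sensitest broth across 10 compound concentrations at 35±2 °C.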

[1] = Acinetobacter baumannii, ATCC17978, 16 h, read-out: ATCC17978 IC90, 90% growth inhibitory concentration, Acinetobacter baumannii ATCC17978, Iso-Sensitest broth, OD 600 nm over 16 h
[2] = 90% growth inhibitory concentration, Acinetobacter baumannii ATCC17978, Iso-Sensitest broth, OD 600 nm over 16 h, read-out: ATCC17978 IC90

| IC90 [2] [nM] | SMILES | IC90 [1] [nM] |
| --- | --- | --- |
| 280 | COc1ccc(-c2cnc3c(Nc4ccc(C(=O)N5CCC(CN)CC5)c(C)c4)nccn23)c(Cl)c1Cl [Example 113, [4-(aminomethyl)-1-piperidyl]-[4-[[3-(2,3-dichloro-4-methoxy-phenyl)imidazo[1,2-a]pyrazin-8-yl]amino]-2-methyl-phenyl]methanone formate] | – |
| 360 | COc1ccc(-c2cnc3c(Nc4ccc(C(=O)N5CCC(C(=O)N6CCN(c7nccn7C)CC6)CC5)c(C)c4)nccn23)cc1F [Example 397, [4-[[3-(3-fluoro-4-methoxyphenyl)imidazo[1,2-a]pyrazin-8-yl]amino]-2-methylphenyl]-[4-[4-(1-methylimidazol-2-yl)piperazine-1-carbonyl]piperidin-1-yl]methanone] | – |
| 140 | CN(C)CCN1CCN(C(=O)c2ccc(Nc3nccn4c(-c5ccc(OCC#N)c(F)c5Cl)cnc34)cc2Cl)CC1 [Example 25, 2-[3-chloro-4-[8-[3-chloro-4-[4-[2-(dimethylamino)ethyl]piperazine-1-carbonyl]anilino]imidazo[1,2-a]pyrazin-3-yl]-2-fluoro-phenoxy]acetontrile] | – |
| 1000 | COc1ccc(-c2cnc3c(Nc4ccc(C(=O)N5CCN[C@H](CO)C5)c(C)c4)nccn23)cc1F [Example 419, [4-[[3-(3-fluoro-4-methoxyphenyl)imidazo[1,2-a]pyrazin-8-yl]amino]-2-methylphenyl]-[(3S)-3-(hydroxymethyl)piperazin-1-yl]methanone] | – |
| 500 | Cc1cc(Nc2nccn3c(-c4ccc(OCC#N)c(F)c4F)cnc23)ccc1C(=O)N1CCC(CNC(=O)CO)CC1 [Example 91, N-[[1-[4-[[3-[4-(cyanomethoxy)-2,3-difluoro-phenyl]imidazo[1,2-a]pyrazin-8-yl]amino]-2-methyl-benzoyl]-4-piperidyl]methyl]-2-hydroxy-acetamide] | – |
| 922 | COc1ccc(-c2cnc3c(Nc4ccc(C(=O)N5CCC(C(=O)N6CCN[C@@H](C(=O)O)C6)CC5)c(C)c4)nccn23)cc1F [Example 558, (R)-4-(1-(4-((3-(3-fluoro-4-methoxyphenyl)imidazo[1,2-a]pyrazin-8-yl)amino)-2-methylbenzoyl)piperidine-4-carbonyl)piperazine-2-carboxylic acid hydrochloride] | – |
| 280 | COc1ccc(-c2cnc3c(Nc4ccc(C(=O)N5CCN(C(=O)[C@H]6CCNC[C@H]6O)CC5)c(C)c4)nccn23)c(Cl)c1F [Example 217, [4-[[3-(2-chloro-3-fluoro-4-methoxy-phenyl)imidazo[1,2-a]pyrazin-8-yl]amino]-2-methyl-phenyl]-[4-[(3S,4S)-3-hydroxypiperidine-4-carbonyl]piperazin-1-yl]methanone] | – |
| 280 | CNCCNC(=O)C1CCN(C(=O)c2ccc(Nc3nccn4c(-c5ccc(OC)c(F)c5)cnc34)cc2C)CC1 [Example 40, 1-(4-((3-(3-fluoro-4-methoxyphenyl)imidazo[1,2-a]pyrazin-8-yl)amino)-2-methylbenzoyl)-N-(2-(methylamino)ethyl)piperidine-4-carboxamide hydrochloride] | – |
| 180 | Cc1cc(Nc2nccn3c(-c4ccc(O[C@@H](C)C#N)c(F)c4F)cnc23)ccc1C(=O)N1CCN(C(=O)C2(O)CCNCC2)CC1 [Example 467, (2S)-2-[2,3-difluoro-4-[8-[4-[4-(4-hydroxypiperidine-4-carbonyl)piperazine-1-carbonyl]-3-methylanilino]imidazo[1,2-a]pyrazin-3-yl]phenoxy]propanenitrile; for-mic acid] | – |

Further lines, the molecule ahead of its results:

| SMILES | IC90 [2] [nM] | IC90 [1] [nM] |
| --- | --- | --- |
| COc1ccc(-c2cnc3c(Nc4ccc(C(=O)N5CCC(C(=O)NCC(O)CN)CC5)c(C)c4)nccn23)cc1F (stereo not drawn) [Example 55, N-(3-amino-2-hydroxypropyl)-1-(4-((3-(3-fluoro-4-methoxyphenyl)imidazo[1,2-a]pyrazin-8-yl)amino)-2-methylbenzoyl)piperidine-4-carboxamide 2,2,2-trifluoroacetate] | – | 390 |
| Cc1cc(Nc2nccn3c(-c4ccc(OC(F)F)cc4)cnc23)ccc1C(=O)N1CCC2(CCCNC2)CC1 [Example 376, 2,9-diazaspiro[5.5]undecan-9-yl-[4-[[3-[4-(difluromethoxy)phenyl]imi-dazo[1,2-a]pyrazin-8-yl]amino]-2-methylphenyl]methanone; hy-drochloride] | – | 2000 |
| Cc1cc(Nc2nccn3c(-c4ccc(OS(C)(=O)=O)c(F)c4F)cnc23)ccc1C(=O)N1CCN(C(=O)[C@@H]2C[C@@H](O)CN2)CC1 [Example 453, [2,3-difluoro-4-[8-[4-[4-[(2S,4R)-4-hydroxypyrrolidine-2-carbonyl]piperazine-1-carbonyl]-3-methylanilino]imidazo[1,2-a]pyrazin-3-yl]phenyl] methanesulfonate; formic acid] | – | 4200 |
| Cc1cc(Nc2nccn3c(-c4ccc(OC(F)F)cc4)cnc23)ccc1C(=O)N1CCN(C(=O)[C@@H]2CCNC[C@H]2O)CC1 [Example 503, [4-[[3-[4-(difluoromethoxy)phenyl]imi-dazo[1,2-a]pyrazin-8-yl]amino]-2-methylphenyl]-[4-[(3S,4R)-3-hydroxypiperidine-4-carbonyl]piperazin-1-yl]methanone] | – | 470 |
| Cc1cc(Nc2nccn3c(-c4ccc(OC(F)F)cc4)cnc23)ccc1C(=O)N1CCN(C(=O)[C@@H](N)CC(=O)O)CC1 [Example 448, (3S)-3-amino-4-[4-[4-[[3-[4-(difluoromethoxy)phenyl]imi-dazo[1,2-a]pyrazin-8-yl]amino]-2-methylbenzoyl]piperazin-1-yl]-4-oxobutanoic acid; hydrochloride] | – | 2200 |
| CNCCCCNC(=O)C1CCN(C(=O)c2ccc(Nc3nccn4c(-c5ccc(OC)c(F)c5)cnc34)cc2C)CC1 [Example 51, 1-(4-((3-(3-fluoro-4-methoxyphenyl)imidazo[1,2-a]pyrazin-8-yl)amino)-2-methylbenzoyl)-N-(4-(methylamino)butyl)piperidine-4-carboxamide hydrochloride] | – | 290 |
| CN[C@@H]1CCN(C(=O)C2CCN(C(=O)c3ccc(Nc4nccn5c(-c6ccc(OC)c(F)c6)cnc45)cc3C)CC2)C1 [Example 50, (R)-(1-(4-((3-(3-fluoro-4-methoxyphenyl)imidazo[1,2-a]pyrazin-8-yl)amino)-2-methylbenzoyl)piperidin-4-yl)(3-(methylamino)pyrrolidin-1-yl)methanone hydrochloride] | – | 290 |
| Cc1cc(Nc2nccn3c(-c4ccc(OC(F)F)cc4)cnc23)ccc1C(=O)N1CCN(C(=O)[C@H]2C[C@@H](N)C2)CC1 [Example 249, [4-(3-aminocyclobutanecarbonyl)piperazin-1-yl]-[4-[[3-[4-(difluoromethoxy)phenyl]imidazo[1,2-a]pyrazin-8-yl]amino]-2-methyl-phenyl]methanone hydrochloride] | – | 180 |
| COc1ccc(-c2cnc3c(Nc4ccc(C(=O)N5CCC(C(=O)NCC6(O)CCNC6)CC5)c(C)c4)nccn23)c(F)c1F (stereo not drawn) [Example 286, 1-[4-[[3-(2,3-difluoro-4-methoxyphenyl)imidazo[1,2-a]pyrazin-8-yl]amino]-2-methylbenzoyl]-N-[(3-hydroxypyrrolidin-3-yl)methyl]piperidine-4-carboxamide; hydrochloride] | – | 73 |
